Assay results taken from publication PMC5702897 (CPT: Pharmacometrics & Systems Pharmacology, 2017).
Like-named read-outs stand apart in the source and are kept apart here.

How the values were obtained:
[1] = 15 to 450 mg given in fasted state; cited from earlier work
[2] = 40 mg single dose, healthy volunteers, cited from earlier work
[3] = weakly basic compound; cited from earlier work

Absorption rate constant (Ka), typical value (PPI=0, Fasted): 2.63 h⁻¹
Absorption rate constant (Ka), typical value (PPI=0, Fed): 0.297 h⁻¹
Absorption rate constant (Ka), typical value (PPI=1, Fasted): 1.361 h⁻¹
Absorption rate constant (Ka), typical value (PPI=1, Fed): 0.154 h⁻¹
Ka as percent of the fasted state value (both PPI and food present): about 6%
Absorption lag time (Tlag), typical value (healthy volunteers, 40 mg): 0.47 H
Central volume (Vc/F), typical value (healthy volunteers, 40 mg): 304.9 L
Peripheral volume (Vp/F), typical value (healthy volunteers, 40 mg): 175.9 L
BSV of absorption lag time (Tlag) (human, in vivo): 3.00%
BSV of central volume (Vc/F) (human, in vivo): 37.7%
BSV of absorption rate constant (Ka) (one value for all four states): 51.9%
decrease in Ka with PPI (regardless of food): ~50%
Compound: CS(=O)(=O)N1CCN(Cc2cc3nc(-c4cccc5[nH]ncc45)nc(N4CCOCC4)c3s2)CC1 [pictilisib, Pictilisib]
dose proportionality of PK [1]: dose‐proportionality
median AUCinf ([2]; fasted with PPI (rabeprazole)): 906 ng·h/mL
median AUCinf ([2]; fasted): 1,760 ng/mL*h
median AUCinf ([2]; fed (high-fat food)): 2,070 ng/mL*h
median AUCinf ([2]; fed with PPI (rabeprazole)): 1,180 ng/mL*h
pKa (first value) [3]: 4.2
